Data reported in patent US20220249504A1, “LONGEVITY SIGNATURES AND THEIR APPLICATIONS” (The Brigham and Women's Hospital, Inc., priority 2019, published 2022).
“Also recorded” adds a separate entry of the source.

Assays:
Format in all cases: in vivo, mouse
[1] = system: C57BI/6 mice; assay: Lifespan of old (2-year-old) C57BL/6 mice given a diet containing the compound
Protocol: (§1) Briefly, 24-28 mice per intervention were used, with an approximately equal number of males and females. Mice were first assessed with regard to frailty index and gait speed, and then randomized to make sure the experimental and control groups had the same average frailty index and gait speed. Mice were then given a diet containing a compound of interest. […] Mice were monitored daily until they died. A separate cohort of old mice was assessed for frailty index and gait speed.
Interventions were predicted in a screen based on the gene expression longevity signatures that we developed. The predicted interventions were then verified for gene expression responses in human and mouse primary cell culture (hepatocytes) and in live mice (after mice were fed for 1 month with the diets containing these interventions). The interventions that passed these tests were further assessed for the effect on lifespan of 2-year-old C57BI/6 mice. Older mice (2-year-old) were chosen for this experiment in order to mimic the effect of giving interventions to human subjects in their second half of life.
as §1, with “females. They” for “females. Mice”

[2] = system: C57BL/6 mice; assay: Frailty index of old C57BL/6 mice on compound diet
Protocol: as §1
as §1, with “females. They” for “females. Mice”

[3] = system: immune cells in the spleen; assay: Population of immune cells in the spleen by FACS; conditions: 27-month-old C57BI/6 females
Protocol: Population of immune cells in the spleen is not altered by Selumetinib (n=7 for Control, n=12 for Selumetinib). 27-month-old C57BI/6 females were used. Cells were analyzed by FACS: B-cells are CD45+CD19+, T-cells are CD45+CD3+, and myeloid cells are CD45+CD11b+.

[4] = system: longevity signatures; assay: GSEA-based association of hepatic gene expression response (RNAseq, UM-HET3 mice on compound diet for 1 month) with longevity signatures; conditions: UM-HET3 male mice, compound in diet for 1 month, liver RNAseq
From the text: Four-month old UM-HET3 mice were subjected to diets for 1 month, followed by gene expression analyses.
To validate the above approach and predictions, specific gene expression datasets were chosen from the GEO database that correspond to the effect of certain interventions considered to be health- and lifespan-extending or shortening on mouse liver (FIG. 16). […] UM-HET3 mice were then subjected to these compounds for 1 month, at which point the mice were sacrificed and subjected to gene expression analysis. Finally, the association GSEA-based test was applied to validate the findings (FIG. 16).
Second, diets were prepared for 24 of the identified compounds. These diets were administered to mice for 1 month, and ensuing gene expression changes were monitored. […]
For samples corresponding to lifespan-extending interventions, paired-end sequencing with 100 bp read length was performed on illumine HiSeq2000 platform. For samples corresponding to predicted compounds, libraries were prepared as described in (Hashimshony et al., 2016) and sequenced with 100 bp read length option on the Illumina HiSeq2500. […] Processed/cleaned reads were then mapped with STAR (version 2.5.2b) (Dobin et al., 2013) and counted via featureCounts (Liao et al., 2014). […]

[5] = system: C57BL/6 mice; assay: Gait speed of old C57BL/6 mice on compound diet; conditions: 31-month-old C57BL/6 male mice
Protocol: as §1
as §1, with “females. They” for “females. Mice”

[6] = system: C57BL/6 mice; assay: Glucose tolerance in old C57BL/6 mice on compound diet; conditions: old C57BL/6 mice at the dose given in diet (AZD-8055: 23-month-old, treated 2.5 months)
Protocol: 23-month-old mice were treated for 2.5 months prior to analyses.

Compound	Effect on lifespan ([1]; C57BL/6 mice (Selumetinib: males and females combined), given late in life, ad libitum (Selumetinib 100 mg/kg of diet, Celastrol 8 mg/kg of food))	Effect on lifespan ([1]; independent cohort of female C57BL/6 mice, Selumetinib 100 mg/kg of diet)	Effect on frailty index ([2]; 31-month-old C57BL/6 female mice)	Relative populations of immune cells in the spleen (B-cells, T-cells, myeloid cells) [3]	Association of hepatic gene expression response with longevity signatures [4]	Effect on lifespan ([1]; C57BL/6 male mice, given late in life, ad libitum in diet (AZD-8055 20 mg/kg of food, LY294002 600 mg/kg, KU-0063794 10 mg/kg of diet))	Effect on frailty index ([2]; 31-month-old C57BL/6 male mice)	Effect on gait speed [5]	Effect on glucose tolerance [6]
Cn1cnc2c(F)c(Nc3ccc(Br)cc3Cl)c(C(=O)NOCCO)cc21 [Selumetinib, 6-(4-Bromo-2-chloroanilino)-7-fluoro-N-(2-hydroxyethoxy)-3-methylbenzimidazole-5-carboxamide]	extends lifespan	extends lifespan	improves	not altered; also recorded: does not alter					
C1COC(NC(C2CC2)C2CC2)=N1 [rilmenidine, N-(Dicyclopropylmethyl)-4,5-dihydro-1,3-oxazol-2-amine]					positive association with some of the signatures, including CR and GH deficiency, but not with the signatures associated with the lifespan extension effect				
COc1ccc(-c2ccc3c(N4CCOCC4)nc(N4C[C@@H](C)O[C@@H](C)C4)nc3n2)cc1CO [KU-0063794, rel-5-[2-[(2R,6S)-2,6-dimethyl-4-morpholinyl]-4-(4-morpholinyl)pyrido[2,3-d]pyrimidin-7-yl]-2-methoxybenzenemethanol]					consistent positive association with all lifespan-extending interventions, except for rapamycin	extend lifespan	improved	improved	No effect; also recorded: did not have a significant effect
